From US11951094B2, “TLR2 modulator compounds, pharmaceutical compositions and uses thereof” (Axial Therapeutics, Inc., priority 2020, dated 2024)

Biological target: TLR2 (Homo sapiens, UniProt O60603)
Assay: TLR2 agonist screening assay, HEK-Blue TLR2 reporter cell line (NF-kB-driven SEAP, absorbance at 600 nm)
Type: cell-based
Set-up: host or cells: HEK-293 (HEK-Blue TLR2 reporter cell line)
Conditions: HEK-Blue TLR2 reporter cells, agonist mode
How it was run: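 EC50 values come from 600 nm absorbance of SEAP-converted substrate after overnight agonist exposure. The reporter line was HEK-293 engineered with TLR2 and an NF-kB-SEAP construct, seeded at about 40,000 cells per well 16-24 h beforehand. Compounds were added at 1% final DMSO.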

TLR2, sequence (O60603 21-784): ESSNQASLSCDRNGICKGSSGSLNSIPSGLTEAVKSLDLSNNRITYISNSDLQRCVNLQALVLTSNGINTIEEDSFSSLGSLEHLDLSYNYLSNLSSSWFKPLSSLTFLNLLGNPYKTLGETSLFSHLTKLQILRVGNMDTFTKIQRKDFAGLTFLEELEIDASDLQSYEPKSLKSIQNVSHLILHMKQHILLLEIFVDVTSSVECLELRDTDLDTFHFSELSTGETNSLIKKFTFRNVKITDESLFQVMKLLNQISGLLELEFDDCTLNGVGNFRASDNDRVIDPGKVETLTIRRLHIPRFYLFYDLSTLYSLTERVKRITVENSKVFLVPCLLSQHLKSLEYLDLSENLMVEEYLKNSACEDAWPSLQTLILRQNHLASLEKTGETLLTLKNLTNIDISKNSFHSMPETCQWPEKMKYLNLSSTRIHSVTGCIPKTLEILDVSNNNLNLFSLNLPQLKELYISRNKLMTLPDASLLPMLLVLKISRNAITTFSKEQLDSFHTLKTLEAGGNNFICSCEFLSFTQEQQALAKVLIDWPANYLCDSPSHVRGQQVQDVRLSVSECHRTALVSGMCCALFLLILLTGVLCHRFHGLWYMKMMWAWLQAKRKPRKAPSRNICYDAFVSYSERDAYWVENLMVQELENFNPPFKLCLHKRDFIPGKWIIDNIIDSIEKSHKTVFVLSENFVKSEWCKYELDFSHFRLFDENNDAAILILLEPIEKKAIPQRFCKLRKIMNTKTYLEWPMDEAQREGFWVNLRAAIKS

EC50 (average of all runs (Table 4)) [nM]	EC50 (average of all runs (Table 3)) [nM]	Structure (SMILES)
> 1000	–	CCCCCCCCCCCCCCNC(=O)[C@@H]1CN(S(=O)(=O)c2ccc(C(=O)N3C[C@@H](C(=O)N[C@H]4C[C@@H]4c4ccccc4)[C@H](C(=O)N[C@H]4C[C@@H]4c4ccccc4)C3)cc2)CCN1C(C)=O [Compound 196, (3S,4S)-1-(4-(((S)-4-acetyl-3-(tetradecylcarbamoyl)piperazin-1-yl)sulfonyl)benzoyl)-N3,N4-bis((1S,2R)-2-phenylcyclopropyl)pyrrolidine-3,4-dicarboxamide]
0.1 to 50	–	O=C(N[C@H]1C[C@@H]1c1ccccc1)[C@@H]1CN(C(=O)c2ccc(C(=O)N3C[C@@H](C(=O)N[C@H]4C[C@@H]4c4ccccc4)[C@H](C(=O)N[C@H]4C[C@@H]4c4cccnc4)C3)cc2)C[C@H]1C(=O)N[C@H]1C[C@@H]1c1ccccc1 (relative stereo) [Compound 096, (3S,4S)—N3-((1S)-2-phenylcyclopropyl)-N4-(2-phenylcyclopropyl)-1-(4-((3S,4S)-3-(((1S,2R)-2-phenylcyclopropyl)carbamoyl)-4-(((1S*,2R*)-2-(pyridin-3-yl)cyclopropyl)carbamoyl)pyrrolidine-1-carbonyl)benzoyl)pyrrolidine-3,4-dicarboxamide]
> 1000	–	CCCCCCCC(=O)N1CCN(S(=O)(=O)c2cccc(C(=O)N3C[C@@H](C(=O)N[C@H]4C[C@@H]4c4ccccc4)[C@H](C(=O)N[C@H]4C[C@@H]4c4ccccc4)C3)c2)C[C@H]1C(=O)NCCCCCC [Compound 170, (3S,4S)-1-(3-(((S)-3-(hexylcarbamoyl)-4-octanoylpiperazin-1-yl)sulfonyl)benzoyl)-N3,N4-bis((1S,2R)-2-phenylcyclopropyl)pyrrolidine-3,4-dicarboxamide]
351 to 1000	–	CCCCCCCC(=O)N1CCCN(C(=O)c2ccc(C(=O)N3C[C@@H](C(=O)N[C@H]4C[C@@H]4c4ccccc4)[C@H](C(=O)N[C@H]4C[C@@H]4c4ccccc4)C3)cc2)C[C@@H]1C(=O)NCCCCCC (single isomer, unassigned) [Compound 146]
> 1000	–	CCCCCCCCCCCCCCNC(=O)[C@@H]1CN(C(=O)c2ccc(C(=O)N3C[C@@H](C(=O)N[C@H]4C[C@@H]4c4ccccc4)[C@H](C(=O)N[C@H]4C[C@@H]4c4ccccc4)C3)cc2)CCO1 [Compound 151, (3S,4S)—N3,N4-bis((1S,2R)-2-phenylcyclopropyl)-1-(4-((S)-2-(tetradecylcarbamoyl)morpholine-4-carbonyl)benzoyl)pyrrolidine-3,4-dicarboxamide]
0.1 to 50	–	CCCCCCNC(=O)[C@H](CNC(=O)c1ccc(C(=O)N2C[C@@H](C(=O)N[C@H]3C[C@@H]3c3ccccc3)[C@H](C(=O)N[C@H]3C[C@@H]3c3ccccc3)C2)cc1)NC(=O)CCc1ccc(F)cc1 [Compound 139, (3S,4S)-1-(4-(((S)-2-(3-(4-fluorophenyl)propanamido)-3-(hexylamino)-3-oxopropyl)carbamoyl)benzoyl)-N3,N4-bis ((1S,2R)-2-phenylcyclopropyl) pyrrolidine-3,4-dicarboxamide]
–	51 to 350	CCCCCCCNC(=O)[C@@H]1CN(C(=O)c2ccc(C(=O)N3C[C@@H](C(=O)N[C@H]4C[C@@H]4c4ccccc4)[C@H](C(=O)N[C@H]4C[C@@H]4c4ccccc4)C3)cc2)C[C@H]1OCCCCCCC (relative stereo) [Compound 062, (3S,4S)-1-(4-((3R*,4S*)-3-(heptylcarbamoyl)-4-(heptyloxy)pyrrolidine-1-carbonyl)benzoyl)-N3,N4-bis((1S,2R)-2-phenylcyclopropyl)pyrrolidine-3,4-dicarboxamide]
> 1000	–	CCCCCCCCCC(=O)N[C@@H](CN1C(=O)c2ccc(C(=O)N3C[C@@H](C(=O)N[C@H]4C[C@@H]4c4ccccc4)[C@H](C(=O)N[C@H]4C[C@@H]4c4ccccc4)C3)cc2C1=O)C(=O)NCCCCCC [Compound 240, (3S,4S)-1-(2-((S)-2-decanamido-3-(hexylamino)-3-oxopropyl)-1,3-dioxoisoindoline-5-carbonyl)-N3,N4-bis((1S,2R)-2-phenylcyclopropyl)pyrrolidine-3,4-dicarboxamide]
351 to 1000	–	CCCCCCCCN1CC(C(=O)NCCCCCC)CN(Cc2ccc(C(=O)N3C[C@@H](C(=O)N[C@H]4C[C@@H]4c4ccccc4)[C@H](C(=O)N[C@H]4C[C@@H]4c4ccccc4)C3)cc2)C1=O (stereo partly drawn) [Compound 178, (3S,4S)-1-(4-((5-(hexylcarbamoyl)-3-octyl-2-oxotetrahydropyrimidin-1 (2H)-yl)methyl)benzoyl)-N3,N4-bis((1S,2R)-2-phenylcyclopropyl)pyrrolidine-3,4-dicarboxamide]
51 to 350	–	CCCCCCCC[C@H]1CN(C(=O)c2ccc(C(=O)N3C[C@@H](C(=O)N[C@H]4C[C@@H]4c4ccccc4)[C@H](C(=O)N[C@H]4C[C@@H]4c4ccccc4)C3)cc2)C[C@@H]1C(=O)NCCCCCC (single isomer, unassigned) [Compound 112]
> 1000	–	CCCCCCNC(=O)[C@@H](CNC(=O)CCCCCC)NC(=O)c1ccc(C(=O)N2C[C@@H](C(=O)N[C@H]3C[C@@H]3c3ccccc3)[C@H](C(=O)N[C@H]3C[C@@H]3c3ccccc3)C2)cc1 [Compound 118, (3S,4S)-1-(4-(((R)-3-heptanamido-1-(hexylamino)-1-oxopropan-2-yl)carbamoyl)benzoyl)-N3,N4-bis((1S,2R)-2-phenylcyclopropyl) pyrrolidine-3,4-dicarboxamide]
0.1 to 50	–	CCCCCCCC[C@@H]1CN(C(=O)c2ccc(C(=O)N3C[C@@H](C(=O)N[C@H]4C[C@@H]4c4ccccc4)[C@H](C(=O)N[C@H]4C[C@@H]4c4ccccc4)C3)cc2)C[C@H]1C(=O)NCCCCCC (racemic) [Compound 085, (3S,4S)-1-(4-((3S*,4S*)-3-(hexylcarbamoyl)-4-octylpyrrolidine-1-carbonyl)benzoyl)-N3,N4-bis((1S,2R)-2-phenylcyclopropyl)pyrrolidine-3,4-dicarboxamide]
> 1000	–	CCCCCCCCCCCCCCNC(=O)[C@@H]1CN(C(=O)c2ccc(C(=O)N3C[C@@H](C(=O)N[C@H]4C[C@@H]4c4ccccc4)[C@H](C(=O)N[C@H]4C[C@@H]4c4ccccc4)C3)cc2)CCN1C(=O)CC(C)(C)C [Compound 253, (3S,4S)-1-(4-((S)-4-(3,3-dimethylbutanoyl)-3-(tetradecylcarbamoyl)piperazine-1-carbonyl)benzoyl)-N3,N4-bis((1S,2R)-2-phenylcyclopropyl)pyrrolidine-3,4-dicarboxamide]
> 1000	–	CCCCCCCCCCCCCCS(=O)(=O)N[C@@H]1CCN(C(=O)c2ccc(C(=O)N3C[C@@H](C(=O)N[C@H]4C[C@@H]4c4ccccc4)[C@H](C(=O)N[C@H]4C[C@@H]4c4ccccc4)C3)cc2)C1 [Compound 083, (3S,4S)—N3,N4-bis((1S,2R)-2-phenylcyclopropyl)-1-(4-((R)-3-(tetradecylsulfonamido)pyrrolidine-1-carbonyl)benzoyl)pyrrolidine-3,4-dicarboxamide]
> 1000	–	CCCCCCC(=O)N[C@@H](CNC(=O)c1ccc(C(=O)N2C[C@@H](C(=O)N[C@H]3C[C@@H]3c3ccccc3)[C@H](C(=O)N[C@H]3C[C@@H]3c3ccccc3)C2)cc1)C(=O)NCc1ccc(F)cc1 [Compound 128, (3S,4S)-1-(4-(((S)-3-((4-fluorobenzyl)amino)-2-heptanamido-3-oxopropyl)carbamoyl)benzoyl)-N3,N4-bis((1S,2R)-2-phenylcyclopropyl)pyrrolidine-3,4-dicarboxamide]
51 to 350	–	O=C(N[C@H]1C[C@@H]1c1ccccc1)[C@@H]1CN(C(=O)c2ccc(C(=O)N3C[C@@H](C(=O)N[C@H]4C[C@@H]4c4cccnc4)[C@H](C(=O)N[C@H]4C[C@@H]4c4cccnc4)C3)cc2)C[C@H]1C(=O)N[C@H]1C[C@@H]1c1ccccc1 (single isomer, unassigned) [Compound 094, (3S,4S)-1-(4-((3S,4S)-3,4-bis(((1S*,2R*)-2-(pyridin-3-yl)cyclopropyl)carbamoyl)pyrrolidine-1-carbonyl)benzoyl)-N3,N4-bis((1S,2R)-2-phenylcyclopropyl) pyrrolidine-3,4-dicarboxamide]
–	51 to 350	CCCCCCNC(=O)[C@H]1CN(C(=O)c2ccc(C(=O)N3C[C@@H](C(=O)N[C@H]4C[C@@H]4c4ccccc4)[C@H](C(=O)N[C@H]4C[C@@H]4c4ccccc4)C3)cc2)C[C@@H]1C(=O)NCCCCCC [Compound 029]
0.1 to 50	–	CCCCCCCCCCCCCNC(=O)N[C@H]1CN(c2nnc(-c3ccc(C(=O)N4C[C@@H](C(=O)N[C@H]5C[C@@H]5c5ccccc5)[C@H](C(=O)N[C@H]5C[C@@H]5c5ccccc5)C4)cc3)o2)C[C@@H]1OC [Compound 260, (3S,4S)-1-(4-(5-((3S,4S)-3-methoxy-4-(3-tridecylureido)pyrrolidin-1-yl)-1,3,4-oxadiazol-2-yl)benzoyl)-N3,N4-bis((1S,2R)-2-phenylcyclopropyl)pyrrolidine-3,4-dicarboxamide]
51 to 350	–	CCCCCCCO[C@H]1CN(C(=O)c2ccc(C(=O)N3C[C@@H](C(=O)N[C@H]4C[C@@H]4c4ccccc4)[C@H](C(=O)N[C@H]4C[C@@H]4c4ccccc4)C3)cc2)C[C@@H]1NC(=O)CCCCCC [Compound 080, (3S,4S)-1-(4-((3S,4S)-3-heptanamido-4-(heptyloxy)pyrrolidine-1-carbonyl)benzoyl)-N3,N4-bis((1S,2R)-2-phenylcyclopropyl)pyrrolidine-3,4-dicarboxamide]
351 to 1000	–	CCCCCCCCCCCCCCNC(=O)[C@H]1CN(C(=O)c2ccc(C(=O)N3C[C@@H](C(=O)N[C@H]4C[C@@H]4c4ccccc4)[C@H](C(=O)N[C@H]4C[C@@H]4c4ccccc4)C3)cc2)CCN1C(C)=O [Compound 163, (3S,4S)-1-(4-((R)-4-acetyl-3-(tetradecylcarbamoyl)piperazine-1-carbonyl)benzoyl)-N3,N4-bis((1S,2R)-2-phenylcyclopropyl)pyrrolidine-3,4-dicarboxamide]
–	> 1000	CCCCCCNC(=O)[C@H](CCNC(=O)c1ccc(C(=O)N2C[C@@H](C(=O)N[C@H]3C[C@@H]3c3ccccc3)[C@H](C(=O)N[C@H]3C[C@@H]3c3ccccc3)C2)cc1)NC(=O)CCCCCC [Compound 017]
